# Source: the supplement of paper PMC10307832
# Legend:
# Experiment in all cases: relative viability (nuclei count vs DMSO), 5 days (fraction); higher = more cells survive
# [1] = compound: COC1=CC=C(C=C1)CN2C=CC3=C2C=C(C=C3)C(=O)NO + CCNC(=O)c1noc(-c2cc(C(C)C)c(O)cc2O)c1-c1ccc(CN2CCOCC2)cc1 [Luminespib] (partner 0.01 µM)
# Summary of the method: (§1)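 Cells from lung cancer lines were seeded into 1536-well plates and, one day later, dosed by pin tool. Treatments were either a single drug or a fixed dose of an anchor drug with five library-drug doses (not always all listed) in √10 steps. After 5 days, nuclei were stained in a one-step fixation (final 0.05% Triton X-100, 1% formaldehyde, 1 ug/ml Hoechst) and counted on 4× images, and relative viability is the treated-to-vehicle nuclei ratio, as the median of duplicate plates.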
# [2] = compound: COC1=CC=C(C=C1)CN2C=CC3=C2C=C(C=C3)C(=O)NO + C[C@@H](Oc1cc(-c2cnn(C3CCNCC3)c2)cnc1N)c1c(Cl)ccc(F)c1Cl [Crizotinib] (partner 1 µM)
# Summary of the method: as §1
# [3] = compound: COC1=CC=C(C=C1)CN2C=CC3=C2C=C(C=C3)C(=O)NO + Nc1nc2[nH]cc(CCc3ccc(C(=O)N[C@@H](CCC(=O)O)C(=O)O)cc3)c2c(=O)[nH]1 [Pemetrexed] (partner 0.2 µM)
# Summary of the method: as §1
# Veliparib + OSI-027 = compound: C[C@]1(c2nc3c(C(N)=O)cccc3[nH]2)CCCN1 [Veliparib] + COc1cccc2cc(-c3nc([C@H]4CC[C@H](C(=O)O)CC4)n4ncnc(N)c34)[nH]c12 [OSI-027] (partner 0.5 µM)
# Summary of the method: as §1
Cell Line,relative viability ([1]; first compound 0.08 µM),relative viability ([1]; first compound 0.253 µM),relative viability ([1]; first compound 0.8 µM),relative viability ([1]; first compound 2.53 µM),relative viability ([1]; first compound 8 µM),relative viability ([2]; first compound 0.08 µM),relative viability ([2]; first compound 0.253 µM),relative viability ([2]; first compound 0.8 µM),relative viability ([2]; first compound 2.53 µM),relative viability ([2]; first compound 8 µM),relative viability ([3]; first compound 0.08 µM),relative viability ([3]; first compound 0.253 µM),relative viability ([3]; first compound 0.8 µM),relative viability ([3]; first compound 2.53 µM),relative viability ([3]; first compound 8 µM),relative viability (Veliparib + OSI-027; first compound 0.02 µM),relative viability (Veliparib + OSI-027; first compound 0.06325 µM),relative viability (Veliparib + OSI-027; first compound 0.2 µM),relative viability (Veliparib + OSI-027; first compound 0.6325 µM),relative viability (Veliparib + OSI-027; first compound 2 µM)
201T,1.05,1.13,1.07,1.05,0.987,1.02,0.999,1.06,1.08,0.969,0.314,0.349,0.322,0.333,0.324,0.659,0.58,0.713,0.759,0.722
A549,–,–,–,–,–,–,0.767,0.855,0.617,0.63,–,–,–,–,–,–,–,–,–,–
A-427,–,1.03,0.956,0.835,0.847,–,0.857,1.03,0.828,0.884,0.923,–,0.965,0.907,0.842,–,0.414,0.485,0.456,0.463
ABC-1,–,0.844,0.391,0.435,0.391,–,1.3,1.17,1.31,1.12,–,–,–,–,–,–,0.429,0.618,0.493,0.312
BEN,0.427,0.286,0.23,0.354,0.218,0.756,0.814,0.894,0.869,0.851,0.729,0.615,0.921,0.725,0.661,0.288,0.315,0.294,0.296,0.3
CAL-12T,0.163,0.233,0.528,0.452,0.332,0.474,0.616,0.702,0.686,0.542,1.2,1.27,1.09,1.1,1.27,0.62,0.629,0.604,0.584,0.657
COR-L23,0.536,0.754,0.716,0.747,0.603,0.499,0.77,0.503,0.574,0.632,0.206,0.2,0.192,0.217,0.197,0.707,0.738,0.841,0.57,0.77
COR-L 105,0.858,0.871,0.893,0.713,0.485,–,0.847,0.714,0.775,0.434,0.686,1.08,1.25,0.983,1.04,0.462,0.715,0.651,0.626,0.654
Calu-6,–,–,–,–,–,0.433,0.759,0.773,0.894,0.71,–,–,–,–,–,–,–,–,–,–
ChaGo-K-1,–,0.69,0.494,0.601,0.409,–,1.24,1.06,1.09,0.926,–,0.266,0.275,0.262,0.255,0.266,0.519,0.513,0.589,0.55
EBC-1,–,–,–,–,–,–,0.183,0.201,0.179,0.181,–,–,–,–,–,–,–,–,–,–
EKVX,0.864,0.896,0.913,0.858,0.783,0.767,0.762,1.16,0.891,0.934,–,0.391,0.371,0.45,0.392,0.629,0.646,0.63,0.639,0.675
EMC-BAC-2,0.964,1.25,1.16,1.21,1.11,0.224,0.828,0.746,0.708,0.687,0.428,–,0.451,0.476,0.491,0.346,0.318,0.379,0.349,0.345
EPLC-272H,0.262,–,0.333,0.4,0.235,0.825,0.906,1.08,0.867,0.896,–,0.342,0.317,0.271,0.322,0.227,0.273,0.265,0.26,0.344
H3255,0.846,0.789,1.03,0.896,0.589,0.571,0.933,0.88,0.833,0.787,0.576,0.519,0.614,0.583,0.583,0.674,0.681,0.584,0.545,0.584
HARA,–,0.552,0.745,0.111,0.548,0.194,1.1,0.99,1.09,0.951,–,0.263,0.277,0.258,0.203,0.508,0.495,0.465,0.433,0.485
HCC-15,0.319,0.277,0.304,0.45,0.34,0.616,0.805,0.919,0.787,0.814,0.203,0.237,0.243,0.234,0.217,–,0.641,0.7,0.619,0.603
HCC-44,0.908,1.05,1.01,0.936,0.837,0.746,0.781,0.824,0.852,0.815,0.628,0.665,0.585,0.649,0.664,0.556,–,0.478,0.682,0.479
HCC-78,–,–,–,–,–,–,0.373,0.345,0.342,0.344,0.901,0.872,0.938,0.918,0.66,0.4,0.364,0.339,0.402,0.423
HCC-366,–,–,–,–,–,–,0.476,0.534,0.413,0.352,0.119,0.153,0.172,0.153,0.175,0.961,0.752,0.89,0.838,0.915
